Reference: paper PMC6770336, “Computationally Designed Peptides for Zika Virus Detection: An Incremental Construction Approach” (Biomolecules, 2019)

Columns and labels:
[1] = system: intact ZIKV particles; assay: Urine and serum matrix effect on the direct ELISA signal; assay type: binding, Zika virus; conditions: peptide 20 μM; for signal decrease in serum: serum diluted 1:10; for signal decrease in serum / signal decrease in urine: 10 mM PBS pH 7.4; for signal decrease in urine: urine diluted 1:1
Description: (§1) After coating the plates overnight, the intact virus particles were removed by washing five times with the washing buffer (PBST) 10 mM PBS pH 7.4, 0.1% Tween-20, using an automated plate washer (MultiWash+, Molecular Devices, Sunnyvale, CA). Then, the plates were blocked with 200 μL of blocking buffers while shaking at 300 rpm at room temperature. The blocking buffers used were Pierce™ protein-free (PBS) blocking buffer (PF), Blocker™ BLOTTO (BT) in TBS, SuperBlock^TM blocking buffer, Blocker™ BSA (1X) in PBS all from ThermoFisher Scientific. After 2 h, the blocking buffers were removed using the same washing procedure mentioned above. Hundred microliter aliquots of several dilutions of peptides biotinylated in 10 mM PBS pH 7.4 were placed in each well and incubated for 2 h while shaking at 300 rpm at room temperature. After the incubation, the unreacted peptides were removed by using the plate washer with the same settings. Then, 100 μL-aliquots of streptavidin-HRP (ThermoFisher Scientific) at a concentration of 20 ng/mL were added into each well and incubated for 30 min at room temperature without shaking. After the incubation, excess streptavidin-HRP was removed and the wells were washed with the plate washer five times using the washing buffer. Finally, 100 μL-aliquots of the Ultra TMB-ELISA substrate solution (ThermoFisher Scientific) were added and after 10 min, the reaction was stopped by adding 100 μL aliquots of the TMB stop solution from SeraCare, available online at; https://www.seracare.com (accessed on 1 abril 2019). The […] (450 nm) was read using a microplate reader (Clariostar Optima; BMG Labtech, Ortenberg, Germany).
Usually, the presence of ZIKV in affected bodies is detected in biological fluids. Therefore, the analytical sensitivity of the selected peptides was tested in two biological matrices, namely, urine and serum. The matrix effect was investigated to understand how real biological fluids could modify the binding efficiency of the peptides.
Figure 8 reports the ELISA data using solutions of peptides with or without the urine and serum obtained, coating clear 96-well plates with 10^6 and 10^7 copies/mL of intact ZIKV particles. Serum and urine were 1:10 and 1:1 diluted, respectively, with a concentrated peptide PBS solution to obtain a peptide final concentration of 20 μM (10 mM PBS, pH 7.4). A coating concentration of 10^5 was also tested, but no signal was observed after the addition of the biological matrix.

[2] = system: intact ZIKV particles; assay: Direct ELISA vs. intact ZIKV particles; assay type: binding, Zika virus; conditions: for FPLR—Dynamic Range: direct ELISA, plates coated with 10-fold serial dilutions of intact ZIKV particles, biotinylated peptide 20 μM in PBS pH 7.4 (4G2 1 μg/mL in PBST), absorbance 450 nm; for FPLR—Dynamic Range / FPLR—maximum / FPLR—minimum: four parameters logistic fit; for FPLR—Dynamic Range / FPLR—C50 / LOD: n = 3; for Long-term stability: dose-response performance of the ELISA reproducible over time, stock 1 mM in 10 mM PBS pH 7.4 stored at −30° C; for FPLR—C50: four parameters logistic fit of delta absorbance vs log ZIKV concentration; for FPLR—C50 / FPLR—maximum / FPLR—minimum / LOD: peptide 20 μM in PBS (4G2 1 μg/mL in PBST); for LOD: interpolated from calibration curve, LOD = AvB + 3 × SDB
Description: Before biotin functionalization, peptides stock solution was reduced using Tris[2-carboxyethyl] phosphine hydrochloride (TCEP) disulfide reducing gel from ThermoFisher Scientific available online at: www.thermofisher.com (accessed on 15 April 2019) and after 1 h, the gel was removed using TCEP gel spin separation columns (ThermoFisher Scientific). Then, two-fold molar excess of EZ-Link™ Maleimide-PEG2-Biotin (ThermoFisher Scientific) was added to purified peptide solution and incubated for 1 h. […] Therefore, no further separation was carried out.
(§2) To optimize all parameters of the direct ELISA protocol, Pierce 96-well polystyrene plates, (ThermoFisher Scientific) were coated overnight at 4° C with different concentrations of intact virus particles (ZIKV or DENV). The intact virus particles were diluted using 100 mM NaHCO3, pH 9.6, and aliquots of 100 μL were dispensed into each well of the plate using a multichannel pipette. This buffer pH assured a strong hydrophobic binding interaction between polystyrene and virus particles.
The antibody 4G2 hybridoma mouse IgG2a was used as the reference and employed in combination with an anti-mouse IgG conjugated to HRP.
as §1
The corresponding blank signals in triplicates were obtained by using all reagents without peptides. They were subtracted to the average absorbance values for triplicate wells of each test.
The optimal concentration of peptide was determined by coating clear 96-well plates with a solution of 10^7 copies/mL of intact ZIKV particles. Concentrations of peptide, from 0.1 to 50 μM, diluted in 10 mM PBS pH 7.4 were added to wells of the microplates coated with intact ZIKV particles. […] Thus, a peptide concentration of 20 μM was used to estimate the linear range and the limit of detection (LOD) of the assay by using 10-fold serial dilutions of intact ZIKV particles from 10^1 to 10^9 copies/mL.
The regression parameters of the assay are reported in Table 4 and the sigmoidal trend in Figure 6. The LOD was interpolated from the calibration curves using LOD = AvB + 3 × SDB, where AvB and SDB were the average (Av) and the standard deviation (SD) of the blank measurements, respectively.

[3] = system: DENV-2 intact virus particles; assay: Direct ELISA cross-reactivity, DENV-2; assay type: binding; conditions: plates coated with 10^6 copies/mL of intact virus particles; peptide 20 μM
Description: as §2
(§3) After coating the plates overnight, the intact virus particles were removed by washing five times with the washing buffer (PBST) 10 mM PBS pH 7.4, 0.1% Tween-20, using an automated plate washer (MultiWash+, Molecular Devices, Sunnyvale, CA). Then, the plates were blocked with 200 μL of blocking buffers while shaking at 300 rpm at room temperature. The blocking buffers used were Pierce™ protein-free (PBS) blocking buffer (PF), Blocker™ BLOTTO (BT) in TBS, SuperBlock^TM blocking buffer, Blocker™ BSA (1X) in PBS all from ThermoFisher Scientific. After 2 h, the blocking buffers were removed using the same washing procedure mentioned above. […] The […] (450 nm) was read using a microplate reader (Clariostar Optima; BMG Labtech, Ortenberg, Germany). […]

[4] = system: DENV-1 intact virus particles; assay: Direct ELISA cross-reactivity, DENV-1; assay type: binding; conditions: plates coated with 10^6 copies/mL of intact virus particles; peptide 20 μM
Description: as §2, §3

[5] = 10^6 copies/mL of intact ZIKV particles
[6] = 10^7 copies/mL of intact ZIKV particles

Substance | signal decrease in serum [1, 5] [%] | signal decrease in serum [1, 6] [%] | signal decrease in urine [1, 5] [%] | signal decrease in urine [1, 6] [%] | FPLR—Dynamic Range [2] | Long-term stability [2] [Month] | FPLR—C50 [2] | FPLR—maximum [2] | FPLR—minimum [2] | LOD [2] | DENV/ZIKV signal ratio, DENV-2 [3] [%] | detection limit in urine and serum ([1]; serum 1:10 and urine 1:1) | DENV/ZIKV signal ratio, DENV-1 [4]
C-LRGHA [P2, experimental peptide with N-terminal cysteine, labelled with maleimide-PEG2-biotin for ELISA] | 77 | 72 | 72 | 85 | 5-7 log[ZIKV], copies/mL | >1 | 6.1 log[ZIKV], copies/mL | 0.928 Absorbance (450 nm) | 0.036 Absorbance (450 nm) | 4.7 log[ZIKV], copies/mL | 34 |  | 
C-SWPGQ [P1, experimental peptide with N-terminal cysteine, labelled with maleimide-PEG2-biotin for ELISA] |  |  |  |  | 7-8 log[ZIKV], copies/mL | >1 | 6.6 log[ZIKV], copies/mL | 0.140 Absorbance (450 nm) | 0.001 Absorbance (450 nm) | 6.8 log[ZIKV], copies/mL |  |  | 
C-KTDAYS [X2, experimental peptide with N-terminal cysteine, labelled with maleimide-PEG2-biotin for ELISA] |  |  |  |  | 6-8 log[ZIKV], copies/mL | >1 | 6.2 log[ZIKV], copies/mL | 0.915 Absorbance (450 nm) | 0.007 Absorbance (450 nm) | 5.8 log[ZIKV], copies/mL |  |  | 
C-KRNATP [X1, experimental peptide with N-terminal cysteine, labelled with maleimide-PEG2-biotin for ELISA] | 95 | 89 | 95 | 82 | 5-7 log[ZIKV], copies/mL | >1 | 6.1 log[ZIKV], copies/mL | 0.973 Absorbance (450 nm) | 0.026 Absorbance (450 nm) | 4.8 log[ZIKV], copies/mL | 49 | 10^7 copies/mL | 32%
C-SHRNATA [H2, experimental peptide with N-terminal cysteine, labelled with maleimide-PEG2-biotin for ELISA] |  |  |  |  | 6-8 log[ZIKV], copies/mL | >1 | 6.5 log[ZIKV], copies/mL | 0.683 Absorbance (450 nm) | 0.014 Absorbance (450 nm) | 5.7 log[ZIKV], copies/mL |  |  | 
C-GSKANNG [H1, experimental peptide with N-terminal cysteine, labelled with maleimide-PEG2-biotin for ELISA] | 82 | 73 | 53 | 45 | 5-7 log[ZIKV], copies/mL | >1 | 6.2 log[ZIKV], copies/mL | 0.826 Absorbance (450 nm) | 0.036 Absorbance (450 nm) | 4.5 log[ZIKV], copies/mL |  |  | up to 42%
